#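 1) Cells in 96-well plates. 2) Compound, 48 h, 5 concentrations. 3) Linear interpolation between surrounding doses. 4) Unreached endpoint = highest concentration. GI50 = concentration required for 50% inhibition of growth. TGI marks complete inhibition of growth.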
# Tests used:
# Assay in all cases: DTP human tumour cell line panel, 48 h
# 786-0 renal = test system: 786-0 renal
# A498 renal = test system: A498 renal
# A549 NSCLC = test system: A549 NSCLC
# ACHN renal = test system: ACHN renal
# BT-549 breast = test system: BT-549 breast
# CAKI-1 renal = test system: CAKI-1 renal
# CCRF-CEM leukemia = test system: CCRF-CEM leukemia
# COLO 205 colon = test system: COLO 205 colon
# DU-145 prostate = test system: DU-145 prostate
# HCC-2998 colon = test system: HCC-2998 colon
# HCT-116 colon = test system: HCT-116 colon
# HCT-15 colon = test system: HCT-15 colon
# HL-60(TB) leukemia = test system: HL-60(TB) leukemia
# HOP-62 NSCLC = test system: HOP-62 NSCLC
# HOP-92 NSCLC = test system: HOP-92 NSCLC
# HS 578T breast = test system: HS 578T breast
# HT29 colon = test system: HT29 colon
# IGROV1 ovarian = test system: IGROV1 ovarian
# K-562 leukemia = test system: K-562 leukemia
# KM12 colon = test system: KM12 colon
# LOX IMVI melanoma = test system: LOX IMVI melanoma
# M14 melanoma = test system: M14 melanoma
# MALME-3M melanoma = test system: MALME-3M melanoma
# MCF7 breast = test system: MCF7 breast
# MDA-MB-231 breast = test system: MDA-MB-231 breast
# MDA-MB-435 = test system: MDA-MB-435
# MOLT-4 leukemia = test system: MOLT-4 leukemia
# NCI-H226 lung = test system: NCI-H226 lung
# NCI-H23 lung = test system: NCI-H23 lung
# NCI-H460 lung = test system: NCI-H460 lung
# NCI-H522 lung = test system: NCI-H522 lung
# NCI/ADR-RES ovarian = test system: NCI/ADR-RES ovarian
# OVCAR-3 ovarian = test system: OVCAR-3 ovarian
# OVCAR-4 ovarian = test system: OVCAR-4 ovarian
# OVCAR-5 ovarian = test system: OVCAR-5 ovarian
# OVCAR-8 ovarian = test system: OVCAR-8 ovarian
# RPMI-8226 leukemia = test system: RPMI-8226 leukemia
# RXF 393 renal = test system: RXF 393 renal
# SF-268 CNS = test system: SF-268 CNS
# SF-295 CNS = test system: SF-295 CNS
# SF-539 CNS = test system: SF-539 CNS
# SK-MEL-28 melanoma = test system: SK-MEL-28 melanoma
# SK-MEL-5 melanoma = test system: SK-MEL-5 melanoma
# SK-OV-3 ovarian = test system: SK-OV-3 ovarian
# SN12C renal = test system: SN12C renal
# SNB-19 CNS = test system: SNB-19 CNS
# SNB-75 CNS = test system: SNB-75 CNS
# SR leukemia = test system: SR leukemia
# SW-620 colon = test system: SW-620 colon
# T-47D breast = test system: T-47D breast
# TK-10 renal = test system: TK-10 renal
# U251 CNS = test system: U251 CNS
# UACC-257 melanoma = test system: UACC-257 melanoma
# UACC-62 melanoma = test system: UACC-62 melanoma
# UO-31 renal = test system: UO-31 renal
compound,measurement,setting,value
CN1CCc2c(c3ccccc3c3ccccc23)C1,GI50,786-0 renal,6.23 µM
same,TGI,786-0 renal,21.3 µM
same,GI50,A498 renal,1.81 µM
same,TGI,A498 renal,7.41 µM
same,GI50,A549 NSCLC,3.25 µM
same,TGI,A549 NSCLC,18.5 µM
same,GI50,ACHN renal,3.6 µM
same,TGI,ACHN renal,14.5 µM
same,GI50,BT-549 breast,12.4 µM
same,TGI,BT-549 breast,29 µM
same,GI50,CAKI-1 renal,4.12 µM
same,TGI,CAKI-1 renal,18.5 µM
same,GI50,CCRF-CEM leukemia,4.62 µM
same,TGI,CCRF-CEM leukemia,21.5 µM
same,GI50,COLO 205 colon,3.32 µM
same,TGI,COLO 205 colon,11.1 µM
same,GI50,DU-145 prostate,5.28 µM
same,TGI,DU-145 prostate,20.5 µM
same,GI50,HCC-2998 colon,5.81 µM
same,TGI,HCC-2998 colon,20.2 µM
same,GI50,HCT-116 colon,3.93 µM
same,TGI,HCT-116 colon,13.5 µM
same,GI50,HCT-15 colon,4.43 µM
same,TGI,HCT-15 colon,51.9 µM
same,GI50,HL-60(TB) leukemia,3.32 µM
same,TGI,HL-60(TB) leukemia,10.2 µM
same,GI50,HOP-62 NSCLC,7.11 µM
same,TGI,HOP-62 NSCLC,26.1 µM
same,GI50,HOP-92 NSCLC,3.31 µM
same,TGI,HOP-92 NSCLC,16.7 µM
same,GI50,HS 578T breast,3.29 µM
same,TGI,HS 578T breast,17.8 µM
same,GI50,HT29 colon,4.23 µM
same,TGI,HT29 colon,16.8 µM
same,GI50,IGROV1 ovarian,4.45 µM
same,TGI,IGROV1 ovarian,16.3 µM
same,GI50,K-562 leukemia,3.59 µM
same,TGI,K-562 leukemia,14.6 µM
same,GI50,KM12 colon,4.91 µM
same,TGI,KM12 colon,16.8 µM
same,GI50,LOX IMVI melanoma,3.17 µM
same,TGI,LOX IMVI melanoma,11.2 µM
same,GI50,M14 melanoma,4.34 µM
same,TGI,M14 melanoma,16.7 µM
same,GI50,MALME-3M melanoma,3.34 µM
same,TGI,MALME-3M melanoma,11.6 µM
same,GI50,MCF7 breast,3.63 µM
same,TGI,MCF7 breast,13.6 µM
same,GI50,MDA-MB-231 breast,8.62 µM
same,TGI,MDA-MB-231 breast,32.2 µM
same,GI50,MDA-MB-435,4.47 µM
same,TGI,MDA-MB-435,17.3 µM
same,GI50,MOLT-4 leukemia,3.78 µM
same,TGI,MOLT-4 leukemia,19.9 µM
same,GI50,NCI-H226 lung,3.77 µM
same,TGI,NCI-H226 lung,29.3 µM
same,GI50,NCI-H23 lung,5.24 µM
same,TGI,NCI-H23 lung,21.7 µM
same,GI50,NCI-H460 lung,3.67 µM
same,TGI,NCI-H460 lung,13.6 µM
same,GI50,NCI-H522 lung,2.76 µM
same,TGI,NCI-H522 lung,8.49 µM
same,GI50,NCI/ADR-RES ovarian,4.58 µM
same,TGI,NCI/ADR-RES ovarian,25.3 µM
same,GI50,OVCAR-3 ovarian,9.92 µM
same,TGI,OVCAR-3 ovarian,25.6 µM
same,GI50,OVCAR-4 ovarian,10.3 µM
same,TGI,OVCAR-4 ovarian,40.2 µM
same,GI50,OVCAR-5 ovarian,10.9 µM
same,TGI,OVCAR-5 ovarian,38.1 µM
same,GI50,OVCAR-8 ovarian,4.46 µM
same,TGI,OVCAR-8 ovarian,43.2 µM
same,GI50,RPMI-8226 leukemia,3.66 µM
same,TGI,RPMI-8226 leukemia,12.7 µM
same,GI50,RXF 393 renal,4.18 µM
same,TGI,RXF 393 renal,17.1 µM
same,GI50,SF-268 CNS,6.46 µM
same,TGI,SF-268 CNS,28 µM
same,GI50,SF-295 CNS,5.37 µM
same,TGI,SF-295 CNS,33.6 µM
same,GI50,SF-539 CNS,5.1 µM
same,TGI,SF-539 CNS,18.1 µM
same,GI50,SK-MEL-28 melanoma,4.75 µM
same,TGI,SK-MEL-28 melanoma,18.9 µM
same,GI50,SK-MEL-5 melanoma,2.97 µM
same,TGI,SK-MEL-5 melanoma,11.4 µM
same,GI50,SK-OV-3 ovarian,8.86 µM
same,TGI,SK-OV-3 ovarian,44.2 µM
same,GI50,SN12C renal,3.74 µM
same,TGI,SN12C renal,27.6 µM
same,GI50,SNB-19 CNS,4.38 µM
same,TGI,SNB-19 CNS,39.1 µM
same,GI50,SNB-75 CNS,6.14 µM
same,TGI,SNB-75 CNS,19.9 µM
same,GI50,SR leukemia,3.44 µM
same,TGI,SR leukemia,15.6 µM
same,GI50,SW-620 colon,3.59 µM
same,TGI,SW-620 colon,15.3 µM
same,GI50,T-47D breast,5.68 µM
same,TGI,T-47D breast,26.7 µM
same,GI50,TK-10 renal,4.27 µM
same,TGI,TK-10 renal,15.4 µM
same,GI50,U251 CNS,3.85 µM
same,TGI,U251 CNS,16.2 µM
same,GI50,UACC-257 melanoma,2.87 µM
same,TGI,UACC-257 melanoma,8.72 µM
same,GI50,UACC-62 melanoma,4.12 µM
same,TGI,UACC-62 melanoma,16.1 µM
same,GI50,UO-31 renal,3.26 µM
same,TGI,UO-31 renal,17.2 µM
